Reference: ChEMBL document CHEMBL1137005 (Bioorg Med Chem Lett, 2009)
The source made the active and inactive calls. The calls are words filed in the database; no cut-off is given here.

What was measured:
Epoxide hydrolase 1 = target: T1, Epoxide hydrolase 1 (Homo sapiens, UniProt P07099); assay: Inhibition of human microsomal epoxide hydrolase
T1 sequence (P07099 whole entry): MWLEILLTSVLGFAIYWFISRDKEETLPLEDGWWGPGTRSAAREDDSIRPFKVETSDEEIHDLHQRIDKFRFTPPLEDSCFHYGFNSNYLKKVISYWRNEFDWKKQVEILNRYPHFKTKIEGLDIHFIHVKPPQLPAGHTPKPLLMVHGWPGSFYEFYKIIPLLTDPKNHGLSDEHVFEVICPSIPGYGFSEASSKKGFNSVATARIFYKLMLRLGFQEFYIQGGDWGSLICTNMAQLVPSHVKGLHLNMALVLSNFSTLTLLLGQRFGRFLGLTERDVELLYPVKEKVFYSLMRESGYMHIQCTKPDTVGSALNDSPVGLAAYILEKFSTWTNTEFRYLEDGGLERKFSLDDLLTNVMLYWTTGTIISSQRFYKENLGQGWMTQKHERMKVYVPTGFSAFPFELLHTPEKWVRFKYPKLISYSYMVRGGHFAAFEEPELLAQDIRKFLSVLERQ

[1] = target: T2, Bifunctional epoxide hydrolase 2 (Homo sapiens, UniProt P34913); assay: Inhibition of human soluble epoxide hydrolase
T2 sequence (P34913 whole entry): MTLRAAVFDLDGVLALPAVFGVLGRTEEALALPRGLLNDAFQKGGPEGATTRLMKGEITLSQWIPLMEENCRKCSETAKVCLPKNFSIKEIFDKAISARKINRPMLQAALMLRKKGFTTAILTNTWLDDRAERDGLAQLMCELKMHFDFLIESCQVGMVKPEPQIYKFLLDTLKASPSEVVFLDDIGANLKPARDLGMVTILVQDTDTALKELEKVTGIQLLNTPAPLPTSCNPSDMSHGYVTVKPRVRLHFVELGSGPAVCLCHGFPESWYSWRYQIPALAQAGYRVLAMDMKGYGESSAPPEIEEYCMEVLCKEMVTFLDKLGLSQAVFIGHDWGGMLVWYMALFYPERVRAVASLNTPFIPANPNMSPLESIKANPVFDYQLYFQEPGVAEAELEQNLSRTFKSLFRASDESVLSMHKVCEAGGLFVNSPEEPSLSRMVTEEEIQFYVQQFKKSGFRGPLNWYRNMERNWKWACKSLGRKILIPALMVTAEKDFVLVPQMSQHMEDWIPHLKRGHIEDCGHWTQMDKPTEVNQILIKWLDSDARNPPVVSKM

[2] = target: T3, Bifunctional epoxide hydrolase 2 (Rattus norvegicus, UniProt P80299); assay: Inhibition of rat soluble epoxide hydrolase
T3 sequence (P80299 whole entry): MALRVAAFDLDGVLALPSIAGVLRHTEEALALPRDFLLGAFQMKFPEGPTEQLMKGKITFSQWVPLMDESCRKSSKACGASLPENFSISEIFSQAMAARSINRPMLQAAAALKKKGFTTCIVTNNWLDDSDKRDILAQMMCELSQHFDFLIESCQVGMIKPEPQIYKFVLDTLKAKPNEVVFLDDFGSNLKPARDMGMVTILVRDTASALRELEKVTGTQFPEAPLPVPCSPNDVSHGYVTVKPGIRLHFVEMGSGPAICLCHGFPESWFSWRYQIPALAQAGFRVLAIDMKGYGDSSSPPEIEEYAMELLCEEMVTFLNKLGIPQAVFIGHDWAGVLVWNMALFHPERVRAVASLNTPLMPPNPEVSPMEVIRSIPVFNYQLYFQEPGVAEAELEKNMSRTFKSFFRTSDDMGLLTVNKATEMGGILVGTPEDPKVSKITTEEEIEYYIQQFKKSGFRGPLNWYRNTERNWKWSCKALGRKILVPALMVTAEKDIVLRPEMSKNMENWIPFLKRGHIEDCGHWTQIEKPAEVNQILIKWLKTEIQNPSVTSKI

[3] = target: T2, Bifunctional epoxide hydrolase 2; assay: Inhibition of human soluble epoxide hydrolase in HEK293 cells assessed as DHET production; format: cell-based
Cytochrome P450 2C9 = Cytochrome P450 2C9 (Homo sapiens, UniProt P11712); assay: Inhibition of CYP2C9; format: ADME
Chain of Cytochrome P450 2C9 (P11712 whole entry): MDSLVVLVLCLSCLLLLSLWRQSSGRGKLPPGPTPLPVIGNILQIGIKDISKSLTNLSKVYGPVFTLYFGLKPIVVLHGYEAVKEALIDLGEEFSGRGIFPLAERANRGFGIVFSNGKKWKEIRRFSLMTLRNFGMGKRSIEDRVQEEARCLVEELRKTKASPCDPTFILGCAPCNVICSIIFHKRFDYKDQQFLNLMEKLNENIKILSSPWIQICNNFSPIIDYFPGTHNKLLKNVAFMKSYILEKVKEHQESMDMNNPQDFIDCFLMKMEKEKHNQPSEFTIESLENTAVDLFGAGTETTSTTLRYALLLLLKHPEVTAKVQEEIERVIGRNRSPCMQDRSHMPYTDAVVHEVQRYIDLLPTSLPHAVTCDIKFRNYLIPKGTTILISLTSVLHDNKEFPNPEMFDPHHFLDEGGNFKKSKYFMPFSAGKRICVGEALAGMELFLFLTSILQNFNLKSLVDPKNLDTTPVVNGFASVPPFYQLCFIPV

Cytochrome P450 2D6 = Cytochrome P450 2D6 (Homo sapiens, UniProt P10635); assay: Inhibition of CYP2D6; format: ADME
Chain of Cytochrome P450 2D6 (P10635 whole entry): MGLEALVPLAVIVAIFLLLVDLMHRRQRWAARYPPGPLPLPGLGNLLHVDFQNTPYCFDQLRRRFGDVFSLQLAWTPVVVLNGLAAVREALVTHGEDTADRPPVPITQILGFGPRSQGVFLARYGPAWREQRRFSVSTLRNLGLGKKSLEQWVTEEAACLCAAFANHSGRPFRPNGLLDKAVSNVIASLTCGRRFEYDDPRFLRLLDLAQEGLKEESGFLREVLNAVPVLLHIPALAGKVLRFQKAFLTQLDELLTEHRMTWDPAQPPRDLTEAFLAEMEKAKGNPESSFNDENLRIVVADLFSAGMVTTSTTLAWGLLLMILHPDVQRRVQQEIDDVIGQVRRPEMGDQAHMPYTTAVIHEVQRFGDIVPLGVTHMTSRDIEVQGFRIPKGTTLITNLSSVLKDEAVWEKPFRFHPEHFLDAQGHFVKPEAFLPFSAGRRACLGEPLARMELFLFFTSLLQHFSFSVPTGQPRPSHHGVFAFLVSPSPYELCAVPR

Cytochrome P450 3A4 = Cytochrome P450 3A4 (Homo sapiens, UniProt P08684); assay: Inhibition of CYP3A4; format: ADME
Chain of Cytochrome P450 3A4 (P08684 whole entry): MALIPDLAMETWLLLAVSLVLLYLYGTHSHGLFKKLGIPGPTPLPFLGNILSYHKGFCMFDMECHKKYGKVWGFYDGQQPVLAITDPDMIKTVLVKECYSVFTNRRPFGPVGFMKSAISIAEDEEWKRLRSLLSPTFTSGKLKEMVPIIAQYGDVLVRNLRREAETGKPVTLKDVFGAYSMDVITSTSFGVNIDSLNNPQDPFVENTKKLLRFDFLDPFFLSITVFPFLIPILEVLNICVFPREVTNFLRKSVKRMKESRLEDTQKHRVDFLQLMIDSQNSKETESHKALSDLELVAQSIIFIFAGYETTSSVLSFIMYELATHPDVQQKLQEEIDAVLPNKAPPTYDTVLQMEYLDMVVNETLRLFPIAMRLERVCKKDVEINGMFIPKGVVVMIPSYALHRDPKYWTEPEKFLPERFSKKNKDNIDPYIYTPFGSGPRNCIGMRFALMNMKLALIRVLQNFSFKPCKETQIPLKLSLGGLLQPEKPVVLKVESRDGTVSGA

[4] = Binding affinity to […] channel diltiazem binding site
[5] = Inhibition of potassium channel IKr
[6] = target: Sodium channel protein type 5 subunit alpha (Homo sapiens, UniProt Q14524); assay: Inhibition of Voltage-gated sodium channel subunit alpha Nav1.5
Chain of Sodium channel protein type 5 subunit alpha (Q14524 whole entry): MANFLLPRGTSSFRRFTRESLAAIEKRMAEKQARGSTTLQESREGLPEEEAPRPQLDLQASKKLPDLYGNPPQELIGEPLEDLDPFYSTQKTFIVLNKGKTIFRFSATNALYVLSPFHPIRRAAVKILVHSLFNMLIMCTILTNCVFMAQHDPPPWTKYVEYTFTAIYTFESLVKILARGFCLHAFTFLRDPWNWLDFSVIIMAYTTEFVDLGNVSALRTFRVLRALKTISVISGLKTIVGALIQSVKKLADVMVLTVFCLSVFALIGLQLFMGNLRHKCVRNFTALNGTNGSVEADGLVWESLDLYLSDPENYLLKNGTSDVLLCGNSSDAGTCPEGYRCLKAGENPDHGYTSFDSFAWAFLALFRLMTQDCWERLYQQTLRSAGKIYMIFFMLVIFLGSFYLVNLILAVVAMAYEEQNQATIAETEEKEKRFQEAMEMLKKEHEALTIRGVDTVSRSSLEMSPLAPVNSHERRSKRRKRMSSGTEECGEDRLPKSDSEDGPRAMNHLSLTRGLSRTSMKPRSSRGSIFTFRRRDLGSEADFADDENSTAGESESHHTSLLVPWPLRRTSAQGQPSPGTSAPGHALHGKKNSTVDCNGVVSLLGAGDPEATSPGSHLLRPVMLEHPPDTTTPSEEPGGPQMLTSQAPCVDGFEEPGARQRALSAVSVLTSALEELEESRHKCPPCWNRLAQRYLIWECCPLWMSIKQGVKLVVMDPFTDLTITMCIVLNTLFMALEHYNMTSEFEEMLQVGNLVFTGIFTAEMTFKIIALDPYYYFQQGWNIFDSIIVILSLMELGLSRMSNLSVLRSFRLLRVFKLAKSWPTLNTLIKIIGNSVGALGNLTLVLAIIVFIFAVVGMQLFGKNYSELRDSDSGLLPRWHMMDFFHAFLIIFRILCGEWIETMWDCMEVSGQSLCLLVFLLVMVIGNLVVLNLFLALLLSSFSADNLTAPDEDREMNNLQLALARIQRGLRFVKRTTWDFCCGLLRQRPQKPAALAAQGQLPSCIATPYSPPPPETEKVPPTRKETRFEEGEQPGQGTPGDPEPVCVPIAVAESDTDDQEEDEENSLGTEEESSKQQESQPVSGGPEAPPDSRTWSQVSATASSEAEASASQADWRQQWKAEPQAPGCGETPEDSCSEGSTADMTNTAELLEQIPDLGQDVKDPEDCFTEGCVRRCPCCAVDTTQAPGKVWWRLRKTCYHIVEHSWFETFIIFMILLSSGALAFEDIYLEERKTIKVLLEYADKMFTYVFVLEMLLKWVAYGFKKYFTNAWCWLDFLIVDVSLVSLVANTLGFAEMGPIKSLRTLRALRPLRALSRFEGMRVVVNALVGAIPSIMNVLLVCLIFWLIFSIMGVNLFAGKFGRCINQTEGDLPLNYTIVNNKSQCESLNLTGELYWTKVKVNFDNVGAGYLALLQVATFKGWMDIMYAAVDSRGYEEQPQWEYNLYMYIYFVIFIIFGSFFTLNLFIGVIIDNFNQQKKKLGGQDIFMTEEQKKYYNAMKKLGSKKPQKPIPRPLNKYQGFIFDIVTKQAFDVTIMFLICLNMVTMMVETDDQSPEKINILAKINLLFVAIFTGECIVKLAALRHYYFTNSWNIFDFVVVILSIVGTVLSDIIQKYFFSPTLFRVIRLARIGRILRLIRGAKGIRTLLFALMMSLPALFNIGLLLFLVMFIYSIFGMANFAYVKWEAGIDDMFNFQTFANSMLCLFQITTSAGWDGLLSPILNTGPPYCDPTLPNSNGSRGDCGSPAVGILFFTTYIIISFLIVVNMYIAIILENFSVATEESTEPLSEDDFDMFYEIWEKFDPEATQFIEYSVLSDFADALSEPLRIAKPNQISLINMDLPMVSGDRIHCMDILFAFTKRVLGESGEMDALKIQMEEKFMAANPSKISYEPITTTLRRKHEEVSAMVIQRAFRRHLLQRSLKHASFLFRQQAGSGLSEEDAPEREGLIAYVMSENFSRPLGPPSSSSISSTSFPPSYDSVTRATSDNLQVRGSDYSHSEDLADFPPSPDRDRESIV

Blood = assay: Inhibition of DHET production in rat whole blood at 1 uM after 1 hr; format: functional; set-up: Activity: scale not given: the % may be the effect or the level left
[7] = Bioavailability in rat at 1 mg/kg, iv and 2 mg/kg, po; format: ADME, organism-based; settings: in vivo
[8] = Clearance in rat at 1 mg/kg, iv and 2 mg/kg, po; format: ADME, organism-based; settings: in vivo
[9] = Volume of distribution at steady state in rat at 1 mg/kg, iv and 2 mg/kg, po; format: ADME, organism-based; settings: in vivo, read-out: Vdss
[10] = Half life in rat at 1 mg/kg, iv and 2 mg/kg, po; format: ADME, organism-based; settings: in vivo
Rattus norvegicus [11] = assay: Plasma concentration in spontaneously hypertensive rat plasma at 50 mg/kg, po; format: ADME, organism-based; set-up: dose 50 mg/kg, route oral; settings: in vivo
Rattus norvegicus [12] = assay: Ex vivo inhibition of DHET production in spontaneously hypertensive rat plasma at 50 mg/kg, po after 0.5 to 6 hrs; format: functional
[13] = Plasma concentration in spontaneously hypertensive rat plasma at 300 mg/kg, after 2 hrs; format: ADME, organism-based; set-up: dose 300 mg/kg
[14] = Plasma concentration in spontaneously hypertensive rat plasma at 300 mg/kg, after 5 hrs; format: ADME, organism-based; set-up: dose 300 mg/kg
[15] = Plasma concentration in spontaneously hypertensive rat plasma at 300 mg/kg, after 24 hrs; format: ADME, organism-based; set-up: dose 300 mg/kg
Rattus norvegicus [16] = assay: Antihypertensive activity in spontaneously hypertensive rat assessed as change in systolic blood pressure at 300 mg/kg, po; format: functional, organism-based; set-up: dose 300 mg/kg; settings: Artery
Rattus norvegicus [17] = assay: Antihypertensive activity in spontaneously hypertensive rat assessed as change in diastolic blood pressure at 300 mg/kg, po; format: functional, organism-based; set-up: dose 300 mg/kg; settings: Artery
Rattus norvegicus [18] = assay: Antihypertensive activity in spontaneously hypertensive rat assessed as change in heart rate at 300 mg/kg, po; format: functional, organism-based; set-up: dose 300 mg/kg
Rattus norvegicus [19] = assay: Antihypertensive activity in spontaneously hypertensive rat assessed as change in pulse pressure at 300 mg/kg, po; format: functional, organism-based; set-up: dose 300 mg/kg

CS(=O)(=O)c1ccc2c(c1)CCC1(CCN(C(=O)c3ccc(C(F)(F)F)cc3)CC1)O2
IC50 (Epoxide hydrolase 1): > 100 µM
IC50 [1]: 0.002 µM
IC50 [2]: 0.019 µM
IC50 [3]: < 0.001 µM
IC50 (Cytochrome P450 2C9): 7.6 µM
IC50 (Cytochrome P450 2D6): > 10 µM
IC50 (Cytochrome P450 3A4): > 10 µM
IC50 [4]: > 30 µM
IC50 [5]: 25 µM
IC50 [6]: > 10 µM
Activity (Blood): 66%
bioavailability [7]: 61%
clearance [8]: 0.9 mL/min/kg
Vd [9]: 1.6 L/kg
half-life [10]: 18 h

O=C1CC2(CCN(C(=O)N[C@H]3C[C@@H]3c3ccccc3)CC2)Oc2ccccc21 (racemic) [listing 1 of 2 here]
Activity (Blood): 8.6%
bioavailability [7]: 61%
clearance [8]: 47 mL/min/kg
Vd [9]: 3.1 L/kg
half-life [10]: 1.5 h
concentration (Rattus norvegicus [11]): 800 nM
inhibition in vivo at 50 mg/kg (Rattus norvegicus [12]): > 95%
concentration at 2 h [13]: 3600 nM
concentration at 5 h [14]: 2700 nM
concentration at 24 h [15]: 1700 nM

O=C1CC2(CCN(C(=O)N[C@H]3C[C@@H]3c3ccccc3)CC2)Oc2ccccc21 (racemic) [listing 2 of 2 here]
Activity (Rattus norvegicus [16]): inactive
Activity (Rattus norvegicus [17]): inactive
Activity (Rattus norvegicus [18]): inactive
Activity (Rattus norvegicus [19]): inactive
